This note sets out measurements from patent US8466162B2, “5-alkynyl-pyridines” (Boehringer Ingelheim International GmbH, priority 2011, dated 2013).

Molecules are shown by their SMILES.

For one test, the system named is BT474 cells. Description: alamarBlue BT474 cell assay (antiproliferative/cytotoxicity). The format is cell-based. The settings on record: BT-474 human breast cancer cell line, 5-6 days incubation. The method in brief:
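After overnight plating of 3000 cells per well, compounds are applied as ten threefold dilutions (highest final 10 μM) in duplicate for 5-6 days. Viability is then gauged by an 8 h alamarBlue incubation and fluorescence readout, with EC50 calculated from medium-blank-corrected signals.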
On the technique in general: Resazurin is reduced to fluorescent resorufin, in cell work by metabolically active cells.

The test system of the next test is MB453 cells. Description: alamarBlue MB453 cell assay (antiproliferative/cytotoxicity). The class given is cell-based. The settings on record: Homo sapiens; MDA MB 453 breast cancer cell line. The method in brief: (§1)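 Read-out: alamarBlue reduction by metabolically active cells, fluorescence ex 530-560 nm/em 590 nm, measured 8 h after dye addition at 37° C. Cells had been exposed to compound for 5-6 days over a 10-point 1:3 series starting at 10 μM final. EC50 derived after medium-blank subtraction.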

Another test has as its system U87 cells. Description: alamarBlue U87 cell assay (antiproliferative/cytotoxicity). The conditions noted are these: U-87MG human glioblastoma cells. The format is cell-based. In short, it runs like this:
as §1

The target of a further test is T1, PI3Kalpha (Homo sapiens, UniProt P42336).
T1 construct: His (N); made in house; host or cells: SF9 insect cells (baculovirus co-infection)
T1 sequence (P27986 whole entry): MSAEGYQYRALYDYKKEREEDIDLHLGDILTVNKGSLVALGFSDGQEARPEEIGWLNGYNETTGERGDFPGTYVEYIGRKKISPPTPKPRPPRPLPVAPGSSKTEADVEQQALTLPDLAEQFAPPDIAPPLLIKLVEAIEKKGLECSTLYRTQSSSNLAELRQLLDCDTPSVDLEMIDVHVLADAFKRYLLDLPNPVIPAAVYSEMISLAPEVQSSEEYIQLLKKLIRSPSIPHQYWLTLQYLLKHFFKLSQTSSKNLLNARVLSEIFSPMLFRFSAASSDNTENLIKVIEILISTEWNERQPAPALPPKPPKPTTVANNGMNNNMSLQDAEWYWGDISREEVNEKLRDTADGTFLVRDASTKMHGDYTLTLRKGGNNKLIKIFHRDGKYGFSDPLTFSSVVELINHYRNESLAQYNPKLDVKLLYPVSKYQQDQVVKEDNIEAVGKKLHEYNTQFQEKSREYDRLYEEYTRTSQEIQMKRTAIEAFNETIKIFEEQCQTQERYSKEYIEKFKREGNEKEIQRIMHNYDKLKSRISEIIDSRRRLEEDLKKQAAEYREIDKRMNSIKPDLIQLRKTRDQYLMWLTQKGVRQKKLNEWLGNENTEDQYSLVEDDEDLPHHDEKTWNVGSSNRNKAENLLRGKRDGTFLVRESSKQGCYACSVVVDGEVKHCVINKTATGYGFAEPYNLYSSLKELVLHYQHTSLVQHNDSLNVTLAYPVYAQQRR
T1 sequence (P42336 whole entry): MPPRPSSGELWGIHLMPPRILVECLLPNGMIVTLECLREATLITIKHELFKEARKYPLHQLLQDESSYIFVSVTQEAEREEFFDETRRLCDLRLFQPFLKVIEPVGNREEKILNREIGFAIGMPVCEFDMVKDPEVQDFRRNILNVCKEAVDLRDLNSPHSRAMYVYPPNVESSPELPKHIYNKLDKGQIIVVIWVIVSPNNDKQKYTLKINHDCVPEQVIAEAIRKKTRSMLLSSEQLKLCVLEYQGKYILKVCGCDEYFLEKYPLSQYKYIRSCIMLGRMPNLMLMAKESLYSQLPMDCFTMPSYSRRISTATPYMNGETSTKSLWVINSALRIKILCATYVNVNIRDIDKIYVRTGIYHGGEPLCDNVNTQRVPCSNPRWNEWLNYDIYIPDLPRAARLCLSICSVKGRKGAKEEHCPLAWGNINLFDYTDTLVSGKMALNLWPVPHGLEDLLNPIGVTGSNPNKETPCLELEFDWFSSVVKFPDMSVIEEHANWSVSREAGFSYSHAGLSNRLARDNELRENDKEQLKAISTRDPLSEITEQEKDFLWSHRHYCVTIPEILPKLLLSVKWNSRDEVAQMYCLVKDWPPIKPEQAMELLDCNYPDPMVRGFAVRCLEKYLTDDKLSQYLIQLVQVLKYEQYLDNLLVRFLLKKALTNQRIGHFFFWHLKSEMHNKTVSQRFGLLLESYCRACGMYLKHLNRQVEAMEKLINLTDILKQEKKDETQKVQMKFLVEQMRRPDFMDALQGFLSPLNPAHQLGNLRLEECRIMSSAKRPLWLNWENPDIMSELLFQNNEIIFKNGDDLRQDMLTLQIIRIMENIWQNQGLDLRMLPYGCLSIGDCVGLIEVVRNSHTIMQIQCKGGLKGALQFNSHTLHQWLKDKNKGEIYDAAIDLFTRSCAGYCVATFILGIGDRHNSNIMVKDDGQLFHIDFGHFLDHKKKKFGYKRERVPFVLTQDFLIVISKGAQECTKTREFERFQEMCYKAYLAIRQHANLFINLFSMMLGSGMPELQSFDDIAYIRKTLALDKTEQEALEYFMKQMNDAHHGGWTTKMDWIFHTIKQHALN
Description: Inhibition of PI3Kalpha-induced PIP-2 phosphorylation (filter-binding assay, 33P-ATP). The class given is biochemical. The settings on record: PI3 Kinase alpha (p85alpha/His-p110alpha), 1 μM ATP; read-out: IC50 PI3Kα.

In another test the test system is MCF7 cells. Description: alamarBlue MCF7 cell assay (antiproliferative/cytotoxicity). The class given is cell-based. The conditions noted are these: MCF7 human breast cancer cell line. In short, it runs like this:
as §1

Another test has as its system H460 cells. Description: alamarBlue H460 cell assay (antiproliferative/cytotoxicity). The settings on record: NCI-H460; H460 human lung carcinoma cells. The class given is cell-based. The method in brief:
as §1

In general, EC50 refers to the concentration that produces a half-maximal response. For orientation: IC50 means the midpoint of a concentration-inhibition curve. Regarding `CCc1ncnc(-c2ccc(OC)cc2F)c1C#Cc1cnc(C)c(NS(C)(=O)=O)c1` [Example 71, N-{5-[4-Ethyl-6-(2-fluoro-4-methoxy-phenyl)-pyrimidin-5-ylethynyl]-2-methyl-pyridin-3-yl}-methanesulfonamide], the half-maximal effective concentration (EC50) with BT474 cells was determined as 1020 nM; in the test on MB453 cells, 558 nM; with U87 cells, 1300 nM; with MCF7 cells, 389 nM; in the test with H460 cells, 683 nM. Besides, the IC50 on PI3Kalpha worked out at 9 nM.
Regarding `CCc1ncnc(-c2ccc(C(=O)N(C)C)cc2F)c1C#Cc1cnc(C)c(NS(C)(=O)=O)c1` [Example 72, 4-[6-Ethyl-5-(5-methanesulfonylamino-6-methyl-pyridin-3-ylethynyl)-pyrimidin-4-yl]-3-fluoro-N,N-dimethyl-benzamide], the EC50 in the test on BT474 cells is 1950 nM; in the test with MB453 cells it was 746 nM; with U87 cells, 1580 nM; in the test with MCF7 cells it was 679 nM; in the test on H460 cells, 3030 nM. In addition, the half-maximal inhibitory concentration (IC50) on PI3Kalpha stood at 8 nM.
In the case of `CCc1ncnc(-c2ccnc(C(C)(C)C)c2)c1C#Cc1cnc(C)c(NS(C)(=O)=O)c1` [Example 75, N-{5-[4-(2-tert-Butyl-pyridin-4-yl)-6-ethyl-pyrimidin-5-ylethynyl]-2-methyl-pyridin-3-yl}-methanesulfonamide], the EC50 was 169 nM in the test with BT474 cells; 143 nM in the test on MB453 cells; 449 nM in the test on U87 cells; 79 nM in the test with MCF7 cells; 200 nM with H460 cells. In addition, the half-inhibitory concentration (IC50) on PI3Kalpha was 1 nM.
`CCc1ncnc(-c2ccnc(OC)c2)c1C#Cc1cnc(C)c(NS(C)(=O)=O)c1` [Example 76, N-{5-[4-Ethyl-6-(2-methoxy-pyridin-4-yl)-pyrimidin-5-ylethynyl]-2-methyl-pyridin-3-yl}-methanesulfonamide]: the EC50 in the test with BT474 cells was determined as 356 nM; in the test on MB453 cells it was 148 nM; in the test with U87 cells, 466 nM; with MCF7 cells, 93 nM; in the test on H460 cells, 207 nM. Besides, the IC50 on PI3Kalpha was 0.91 nM.
For `CCc1ncnc(-c2ccc(CN)cc2)c1C#Cc1cnc(C)c(NS(C)(=O)=O)c1` [Example 78, N-{5-[4-(4-Aminomethyl-phenyl)-6-ethyl-pyrimidin-5-ylethynyl]-2-methyl-pyridin-3-yl}-methanesulfonamide], the half-maximal effective concentration (EC50) was 524 nM with BT474 cells; 240 nM with MB453 cells; 892 nM in the test on U87 cells; 549 nM in the test with MCF7 cells; 2400 nM in the test with H460 cells. Besides, on PI3Kalpha, the IC50 stood at 4 nM.
For the compound `CCc1ncnc(-c2ccnc(C)c2)c1C#Cc1cnc(C)c(NS(=O)(=O)c2ccccc2)c1` [Example 83, N-{5-[4-Ethyl-6-(2-methyl-pyridin-4-yl)-pyrimidin-5-ylethynyl]-2-methyl-pyridin-3-yl}-benzenesulfonamide], the concentration for a half-maximal effect (EC50) in the test on BT474 cells was 103 nM; in the test on MB453 cells, 86 nM; in the test with U87 cells it was 227 nM; with MCF7 cells, 29 nM; with H460 cells, 57 nM. Further, the IC50 at PI3Kalpha stood at 0.65 nM.
For `CCc1ncnc(-c2ccnc(C)c2)c1C#Cc1cnc(C)c(NS(=O)(=O)c2ccc(Cl)cc2)c1` [Example 85, 4-Chloro-N-{5-[4-ethyl-6-(2-methyl-pyridin-4-yl)-pyrimidin-5-ylethynyl]-2-methyl-pyridin-3-yl}-benzenesulfonamide], the EC50 worked out at 302 nM in the test with BT474 cells; 499 nM in the test on MB453 cells; 980 nM with U87 cells; 88 nM with MCF7 cells; 352 nM in the test on H460 cells. The concentration for half-maximal inhibition (IC50) at PI3Kalpha stood at 1 nM.
For the compound `CCc1ncnc(-c2ccnc(C)c2)c1C#Cc1cnc(C)c(NS(=O)(=O)c2ccc(C)cc2)c1` [Example 86, N-{5-[4-Ethyl-6-(2-methyl-pyridin-4-yl)-pyrimidin-5-ylethynyl]-2-methyl-pyridin-3-yl}-4-methyl-benzenesulfonamide], the concentration giving a half-maximal response (EC50) in the test on BT474 cells came out at 302 nM; with MB453 cells, 492 nM; in the test with U87 cells, 697 nM; in the test with MCF7 cells it was 56 nM; in the test with H460 cells it was 208 nM. Also, at PI3Kalpha, the IC50 was determined as 1 nM.
`CCc1ncnc(-c2ccnc(C)c2)c1C#Cc1cnc(C)c(NS(=O)(=O)c2ccc(OC)cc2)c1` [Example 87, N-{5-[4-Ethyl-6-(2-methyl-pyridin-4-yl)-pyrimidin-5-ylethynyl]-2-methyl-pyridin-3-yl}-4-methoxy-benzenesulfonamide]: the EC50 in the test with BT474 cells came to 381 nM; in the test on MB453 cells, 505 nM; in the test on U87 cells, 887 nM; in the test with MCF7 cells, 372 nM; in the test with H460 cells it was 240 nM. Further, on PI3Kalpha, the IC50 was 5 nM.
For `CCc1ccccc1S(=O)(=O)Nc1cc(C#Cc2c(CC)ncnc2-c2ccnc(C)c2)cnc1C` [Example 88, 2-Ethyl-N-{5-[4-ethyl-6-(2-methyl-pyridin-4-yl)-pyrimidin-5-ylethynyl]-2-methyl-pyridin-3-yl}-benzenesulfonamide], the EC50 in the test on BT474 cells came out at 175 nM; in the test on MB453 cells, 330 nM; with U87 cells it was 704 nM; in the test with MCF7 cells, 65 nM; in the test on H460 cells, 140 nM. Further, at PI3Kalpha, the half-inhibitory concentration (IC50) was found to be 9 nM.
Take `CCc1ncnc(-c2ccnc(C)c2)c1C#Cc1cnc(C)c(NS(=O)(=O)c2ccccc2C)c1` [Example 89, N-{5-[4-Ethyl-6-(2-methyl-pyridin-4-yl)-pyrimidin-5-ylethynyl]-2-methyl-pyridin-3-yl}-2-methyl-benzenesulfonamide]: the EC50 with BT474 cells was 198 nM; with MB453 cells, 524 nM; in the test on U87 cells it was 827 nM; in the test on MCF7 cells it was 50 nM; in the test on H460 cells it was 319 nM. Further, the IC50 on PI3Kalpha was found to be 0.88 nM.
In the case of `CCc1ncnc(-c2ccnc(C)c2)c1C#Cc1cnc(C)c(NS(=O)(=O)c2cccnc2)c1` [Example 91, Pyridine-3-sulfonic acid {5-[4-ethyl-6-(2-methyl-pyridin-4-yl)-pyrimidin-5-ylethynyl]-2-methyl-pyridin-3-yl}-amide], the EC50 in the test with BT474 cells was determined as 206 nM; in the test with MB453 cells, 164 nM; in the test with U87 cells, 476 nM; with MCF7 cells it was 137 nM; with H460 cells, 799 nM. Further, on PI3Kalpha, the half-inhibitory concentration (IC50) amounted to 0.39 nM.
In the case of `CCc1ncnc(-c2ccnc(C)c2)c1C#Cc1cnc(C)c(NS(=O)(=O)c2ccc(C)cc2C)c1` [Example 92, N-{5-[4-Ethyl-6-(2-methyl-pyridin-4-yl)-pyrimidin-5-ylethynyl]-2-methyl-pyridin-3-yl}-2,4-dimethyl-benzenesulfonamide], the EC50 amounted to 483 nM in the test on BT474 cells; 986 nM in the test with MB453 cells; 983 nM in the test with U87 cells; 228 nM in the test on MCF7 cells; 365 nM in the test with H460 cells. Besides, the half-inhibitory concentration (IC50) on PI3Kalpha turned out to be 7 nM.
Regarding `CCc1ncnc(-c2ccnc(C)c2)c1C#Cc1cnc(C)c(NS(=O)(=O)c2cn(C)cn2)c1` [Example 93, 1-Methyl-1H-imidazole-4-sulfonic acid {5-[4-ethyl-6-(2-methyl-pyridin-4-yl)-pyrimidin-5-ylethynyl]-2-methyl-pyridin-3-yl}-amide], the concentration for a half-maximal effect (EC50) stood at 406 nM in the test with BT474 cells; 149 nM in the test with MB453 cells; 562 nM with U87 cells; 194 nM in the test on MCF7 cells; 293 nM in the test on H460 cells. At PI3Kalpha, the half-inhibitory concentration (IC50) was determined as 1 nM.
